# Measurements: patent US20220054595A1, “Formulation Including a Combination of beta-Endorphin and Adrenocorticotropic Hormone” (Adamis Pharmaceuticals Corporation, priority 2019, published 2022)
# Experiments:
# [1] = tested on: EAE induced in SJL mice by PLP139-151/CFA immunization; test: EAE in SJL mice: histological and immunohistological analyses; format: in vivo, mouse
# Description: (§1) The effect of administration of two dosages of ACTH and β-endorphin on severity and relapse in EAE was evaluated. EAE was induced in SJL mice by PLP139-151/CFA immunization on Day 0. Treatment was late therapeutic, starting on Day 20 after immunization for each mouse. Mice were observed through the end of the study, Day 42 after immunization. Four groups of 20 mice each received one of the following treatments: vehicle (a negative control); 10 mg/kg oral prednisolone daily (reference treatment); 32 μg ACTH+16 μg endorphin by subcutaneous injection, every 2nd day (low dose); or 64 μg ACTH+32 μg β-endorphin by subcutaneous injection, every 2nd day (high dose).
# Treatment started on the day of group assignment (Day 20 after immunization). This was the time of the expected end of the first wave of EAE and before relapses were expected to begin. Treatment continued through Day 41. EAE score was determined daily by a person unaware of both treatment and of previous scores for each mouse. Weight was measured 3 times a week. Five mice in each group were euthanized on day 30 and the fifteen remaining mice euthanized at the end of the study (Day 42). Histological and immunohistological analyses were performed on tissue collected from the euthanized mice.
# [2] = tested on: EAE induced in SJL mice by PLP139-151/CFA immunization; test: EAE in SJL mice, late therapeutic treatment: clinical findings; format: in vivo, mouse
# Description: as §1
# Mice were injected subcutaneously at four sites in the back with emulsion containing PLP139-151 (native sequence) from HOOKE KIT™ PLP139-151/CFA Emulsion, catalog number EK-0120 (Hooke Laboratories, Lawrence Mass.). Two sites of injection were in the upper back approximately 1 cm caudal of the neck line. The other two sites were in the lower back approximately 2 cm cranial of the base of the tail. The injection volume was 0.05 mL at each site. Even without treatment, most mice recover spontaneously after the first wave of disease. In the SJL model, EAE develops 10-15 days after immunization in 90-100% of immunized mice. The first wave of EAE lasts several days and most mice fully or almost fully recover from this first wave. After a disease-free period, which can last from one day to several months, most mice relapse. During the first 5-7 weeks after immunization, 50-100% of mice will develop a relapse. Each wave of paralysis results in body weight loss at onset, most of which is regained at recovery from the wave. The greatest weight loss is during the first wave of EAE. During the chronic phase of disease, the average EAE body weight is relatively stable, with normal slow increase with age. Since individual mice experience relapses at different times, only a few mice in each group are acutely sick at any given time after the first wave of EAE. Therefore, significant differences in relative body weight between groups are often not found after the first wave of disease in this model. In the vehicle treated group, disease developed as expected for this model. Five (5) mice were euthanized on Day 30 for analysis. Relapse occurred in 7 out of the 15 remaining mice, which were followed to Day 42, with typical course and severity of disease.
# 100 EAE induced mice were initially considered a single group and were scored daily starting on Day 9 after immunization. On Day 20, mice were assigned to the experimental groups in a balanced manner to achieve groups with similar times of EAE onset, similar maximum EAE score and similar scores at the time of enrollment into treatment (see Table 2). The remaining mice, which developed EAE last, or which developed unusual signs of EAE such as head tilting, were not assigned to any treatment group. […]
# Treatment started on the day of group assignment (Day 20 after immunization). […] EAE score was determined daily by a person unaware of both treatment and of previous scores for each mouse. Weight was measured 3 times a week. […]
# [3] = tested on: acute epileptic extensor spasms (AEES) in Ts65Dn mouse; conditions: GABABR agonist-treated Ts65Dn mouse; cited from earlier work
Compound,Demyelination (anti-MBP) ± SD ([1]; anti-myelin basic protein staining score 0-5),"GFAP ± SD (% of area) ([1]; gliosis, % of total spinal cord area)","lba1 ± SD (% of area) ([1]; microglial activation, % of total spinal cord area)","Demyelination, anti-myelin basic protein staining score versus vehicle (in words) ([1]; mouse, in vivo)","Gliosis (scarring), area of anti-GFAP staining versus vehicle (in words) ([1]; mouse, in vivo)","Inflammation and inflammatory infiltrates, number of inflammatory foci versus vehicle (in words) ([1]; mouse, in vivo)",Inflammatory foci/section ± SD ([1]; spinal cord histology of euthanized mice) [foci/section],"End score ± SD ([2]; EAE score (scale 0-5) at end of study, mice followed until Day 42)",Body weight change versus vehicle control (in words) ([2]; end of study),"MMS of relapse period ± SD (Days 25-42) ([2]; mean maximal EAE score (scale 0-5), mice followed until Day 42, all mice in the group)","Incidence of relapse ([2]; mice followed until Day 42, treatment Day 20-41, mice that relapsed as proportion of surviving mice that developed first wave of EAE) [%]","End % body weight ± SD ([2]; relative body weight at end of study, mice followed until Day 42)",Reduction of AEES [3]
"C[C@]12C=CC(=O)C=C1CC[C@@H]1[C@@H]2[C@@H](O)C[C@@]2(C)[C@H]1CC[C@]2(O)C(=O)CO [Prednisolone, prednisolone]",0.9 ± 0.6,13.3 ± 2.0 % of area,4.0 ± 1.2 % of area,only at best a trend to reduction,a higher level of gliosis,only at best a trend to reduction,3.8 ± 2.4,1.47 ± 1.04,statistically significant loss of weight versus the vehicle control,2.07 ± 1.10,33.3,88.6% ± 9.3%,–
"Rodent ACTH: murine ACTH, SEQ ID NO: 9, SYSMEHFRWGKPVGKKRRPVKVYPNVAENESAEAFPLEF (listed as Mus musculus)",–,–,–,–,–,–,–,–,–,–,–,–,can significantly reduce AEES
